Patent US11660326B2, “Bacterial-binding peptides for treatment of infectious diseases and related inflammatory processes” (priority 2018, dated 2023)
Like-named read-outs stand apart in the source and are kept apart here.

Columns and labels:
[1] = Intrinsic tryptophan fluorescence binding, apparent Kd for Re-LPS; design: species or system Salmonella minnesota serotype Re 595; details: for Kd: PBS, peptide 10 μg/mL, Hill fit
Experimental: (§1) FIG. 4. Kd analysis of the LPS and LTA interaction with CD6-derived peptides and protein. The apparent Kd values for the binding of peptides and proteins in study to LPS and LTA determined by fluorescence emission of tryptophan residues are shown. Peptides/proteins (10 μg/mL) were titrated with or without increasing concentrations of Re-LPS or LTA in PBS. Peptide samples (with and without either Re-LPS or LTA) and blank samples (Re-LPS or LTA alone) were excited at 295 nm, and the emission spectra recorded from 300 to 400 nm. Results are expressed as the change in peptide fluorescence (AF) at the wavelength of the emission maxima (353 nm for the peptides and 337 nm for rshCD6 protein) in the presence and absence of either Re-LPS or LTA. Results are means±SD of 3 experiments. Peptide fluorescence changes at 353 nm were fitted to the Hill equation.
(§2) Intrinsicfluorescence experiments. To explore the ability of different peptides/proteins to bind LTA (Mr=14,000, from S. aureus) and rough LPS (Re-LPS, Mr=2500, from Salmonella minnesota serotype Re 595), binding studies were carried out in an AB2 spectrofluorimeter with a thermostated cuvette holder (±0.1° C.), using 5×5 mm path-length quartz cuvettes as described (Coya J M, et al., 2015, Natural Anti-Infective Pulmonary Proteins: In Vivo Cooperative Action of Surfactant Protein SP-A and the Lung Antimicrobial Peptide SP-BN, J Immunol 195:1628-36). Re-LPS concentration was assessed by quantification of 2-keto-3-deoxyoctulosonic acid (Garcia-Verdugo I, et al., 2003, Effect of hydroxylation and N187-linked glycosylation on molecular and functional properties of recombinant human surfactant protein A, Biochemistry 42:9532-42). Peptide/protein samples (10 μg/mL) were titrated with different amounts of a stock solution of either LTA or Re-LPS in phosphate buffered saline (PBS) pH 7.2, and the Trp fluorescence emission spectra recorded with excitation at 295 nm. The fluorescence intensity readings were corrected for the dilution caused by […]. Background intensities in peptide/protein-free samples due to LTA or Re-PS were subtracted from each recording. The apparent dissociation constant (Kd) of peptide/protein-ligand complexes were obtained by nonlinear least-squares fitting to the Hill equation of the change in peptide fluorescence at 353 nm with the amount of added LTA or Re-LPS (Garcia-Verdugo I, et al., 2003, Effect of hydroxylation and N187-linked glycosylation on molecular and functional properties of recombinant human surfactant protein A, Biochemistry 42:9532-42): ΔF/ΔFmax=[L]^n/([L]^n+Kd), where ΔF is the change in fluorescence intensity at 353 nm relative to the intensity of free peptide; ΔFmax is the change in fluorescence intensity at saturating LTA or Re-LPS concentrations; [L] is the molar concentration of free ligand; and n is the Hill coefficient.

[2] = Intrinsic tryptophan fluorescence binding, apparent Kd for LTA; design: species or system S. aureus; details: for Kd: PBS, peptide 10 μg/mL, Hill fit
Experimental: as §1, §2

[3] = Endotoxin adsorption on peptide/protein-coated Eupergit beads (LAL assay); details: 50 UI/mL LPS, 0-150 min, vs HSA- and rshCD5-coated controls
Experimental: FIG. 11. Endotoxin adsorption assays on immobilized CD6-derived peptides and proteins. Eupergit® beads coated with different CD6-derived peptides (PD2, PD3, and Pcons) (A) or proteins (rshCD5 and rshCD6) (B) were incubated for different periods of time (0, 30, 90 and 150 min) with a 50 UI/mL endotoxin solution. Limulus amoebocyte lysate activating activity (LAL activity) of supernatants was then monitored along time and the OD 405-620 nm represented. Beads coated with Human Serum Albumin (HSA) were used as negative controls. Shown are triplicates of a representative experiment from two independent performed. Statistical analysis was done by using the 2-tailed paired T test with 95% confidence interval (***, P<0.001).
Proteins or peptides (2.5 mg each) were immobilized via NH2 groups on macroporous acrylic EUPERGIT© beads (0.2 g; Röhm-Pharma GmbH, Germany) following a previously described protocol (Zimmermann M, et al., 1999, Endotoxin adsorbent based on immobilized human serum albumin. Clin Chem Lab Med 37:373-379). Peptide or protein-coated Eupergit® beads are obtained by incubation with stirring of the polymeric beads at room temperature with a solution of the peptides of the invention in sodium phosphate buffer 100 mM pH 8 for 24 hours. After incubation, the beads were washed 3 times with 3 M sodium chloride pH 7.0, 30 mM sodium phosphate buffer pH 4.0 and 30 mM sodium phosphate buffer pH 8.0. Finally, 154 mM sodium chloride solution pH 7.0 was added to the peptide or protein-coated beads.
LPS detection was performed by using the turbidimetric-kinetic Limulus Amebocyte Lysate (LAL) kit-QCL (50-650U, Lonza) following manufacturer's instructions. Protein/peptide-coated EUPERGIT® beads were incubated 1:1 (v:v) with the provided endotoxin solution (50 UI/mL) for different periods of time (0-150 min) at room temperature following manufacturer's instructions.

[4] = test system: mice undergoing CLP-induced septic shock; assay: Plasma cytokine levels following CLP-induced sepsis; type: in vivo, C57BL/6J mice; details: 20 h post CLP; 6 mg/kg i.v. at +1 h; vs saline-treated group
Experimental: FIG. 9. Therapeutic effect of CD6.PD3 infusion on cytokine and bacterial load levels following CLP-induced sepsis. (A) C57BL/6J mice were i.v. infused at +1 h post CLP with saline (n=7) or CD6.PD3 peptide (6 mg/kg; n=9), and cytokine plasma levels were monitored by ELISA at different time points (4 h and 20 h) thereafter. Data are expressed as mean±SD. (B) Same mouse groups as in (A) were monitored for blood and spleen bacterial load at 20 h following CLP induction. Data are expressed as mean±SD of CFU/mg (spleen) or CFU/μL (blood). In all cases, statistical differences were evaluated using a 2-tailed Student t-test (*, P<0.05).
Animal procedures were approved by the Animal Experimentation Ethical Committee, University of Barcelona. High-grade mortality (≥90% mortality within the first 48-72 h) CLP-induced septic shock was induced in 8-10 week old C57BL/6J male mice (20-25 g; Charles River) as previously reported (Martinez-Florensa M, et al., 2017, Protective Effects of Human and Mouse Soluble Scavenger-Like CD6 Lymphocyte Receptor in a Lethal Model of Polymicrobial Sepsis, Antimicrob Agents Chemother 61:e01391-16).

Sequence	affinity / Kd for LPS, in words [1]	Kd [1]	affinity / Kd for LPS, in words ([1]; listed as PD2)	affinity / Kd for LTA, in words [2]	Kd [2]	affinity / Kd for LTA, in words ([2]; listed as PD2)	endotoxin levels (LAL assay) [3]	affinity / Kd for LPS, in words ([1]; listed as PD1)	affinity / Kd for LTA, in words ([2]; listed as PD1)	IL-1β level [4]	IL-6 level [4]	TNF-α level [4]
GRVEMLEHGEW [CD6.PD2]	lower than the prototypical DMBT1.pbs1 and CD6.cons peptides or the rshCD6 protein itself	35 ± 2 nM	very high affinity	lower than the prototypical DMBT1.pbs1 and CD6.cons peptides or the rshCD6 protein itself	0.31 ± 0.04 nM	very high affinity	reduced endotoxin levels	–	–	–	–	–
GTVEVRLEASW [CD6.PD1]	lower than the prototypical DMBT1.pbs1 and CD6.cons peptides or the rshCD6 protein itself	3.5 ± 0.3 nM	–	lower than the prototypical DMBT1.pbs1 and CD6.cons peptides or the rshCD6 protein itself	0.39 ± 0.06 nM	–	–	very high affinity	very high affinity	–	–	–
GQVEVHFRGVW (CD6.PD3)	–	–	–	–	–	–	reduced endotoxin levels	–	–	significant lower levels	significant lower levels	significant lower levels
